Data as given in US20230116703A1, “NOVEL ERGOLINES AND METHODS OF TREATING MOOD DISORDERS” (priority 2021, published 2023).
Read-outs that look alike come from different tables or passages of the source.

Experiments:
[1] = molecular target: T1, 5-HT2A receptor (Homo sapiens, UniProt P28223); test: biochemical; type: binding
T1 construct: host or cells: HEK293
Experimental: Affinity of the test compounds for the 5-HT2A receptor was determined in radioligand binding experiments with [^3H]ketanserin by WuXi AppTec (Hong Kong) Limited, using methods adapted from the literature and under conditions described in Table 1.

[2] = molecular target: T1, 5-HT2A receptor; test: cell-based; type: cell-based
Experimental: (§1) Functional Assays at 5-HT2A, 5-HT2B, and 5-HT1A. Agonist activity at 5-HT2A, 5-HT2B, and 5-HT1A receptors was determined using a FLIPR Ca^2+ flux assay at WuXi AppTec (Hong Kong) Limited according to their standard protocols. Briefly, stably transfected cells expressing the receptor of interest (HEK293 for 5-HT2A and 5-HT2B; CHO cells for 5-HT1A) were grown and plated in a 384 well plate and incubated at 37° C. and 5% CO2 overnight. A solution of 250 mM probenecid in 1 mL FLIPR assay buffer was prepared fresh. This was combined with a fluorescent dye (Fluo-4 Direct™) to make a final assay concentration of 2.5 mM. […] The fluorescent dye was then added to the assay plate along with assay buffer to a final volume of 40 μL. The cell plate was incubated for 50 min at 37° C. and 5% CO2 and placed into the FLIPR Tetra along with the compound plate. 10 μL of references and compounds were then transferred from the compound plate into the cell plate and the fluorescent signal was read.

[3] = molecular target: T2, 5-HT1A receptor (Homo sapiens, UniProt P08908); test: cell-based
T2 construct: host or cells: CHO cells
T2 sequence (P08908 1-422): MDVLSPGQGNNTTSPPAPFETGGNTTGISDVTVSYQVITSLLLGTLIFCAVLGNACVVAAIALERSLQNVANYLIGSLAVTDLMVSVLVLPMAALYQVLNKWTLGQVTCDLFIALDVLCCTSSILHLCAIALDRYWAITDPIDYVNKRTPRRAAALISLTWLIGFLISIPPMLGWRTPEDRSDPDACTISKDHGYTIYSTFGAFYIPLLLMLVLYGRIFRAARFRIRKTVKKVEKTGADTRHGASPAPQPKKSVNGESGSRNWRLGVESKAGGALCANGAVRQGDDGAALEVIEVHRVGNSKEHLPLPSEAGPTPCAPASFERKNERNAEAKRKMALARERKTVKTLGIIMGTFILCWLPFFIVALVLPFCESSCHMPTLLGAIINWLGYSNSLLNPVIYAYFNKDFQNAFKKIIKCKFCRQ
Experimental: as §1

[4] = molecular target: T3, 5-HT2B receptor (Homo sapiens, UniProt P41595); test: cell-based
T3 construct: host or cells: HEK293
T3 sequence (P41595 whole entry): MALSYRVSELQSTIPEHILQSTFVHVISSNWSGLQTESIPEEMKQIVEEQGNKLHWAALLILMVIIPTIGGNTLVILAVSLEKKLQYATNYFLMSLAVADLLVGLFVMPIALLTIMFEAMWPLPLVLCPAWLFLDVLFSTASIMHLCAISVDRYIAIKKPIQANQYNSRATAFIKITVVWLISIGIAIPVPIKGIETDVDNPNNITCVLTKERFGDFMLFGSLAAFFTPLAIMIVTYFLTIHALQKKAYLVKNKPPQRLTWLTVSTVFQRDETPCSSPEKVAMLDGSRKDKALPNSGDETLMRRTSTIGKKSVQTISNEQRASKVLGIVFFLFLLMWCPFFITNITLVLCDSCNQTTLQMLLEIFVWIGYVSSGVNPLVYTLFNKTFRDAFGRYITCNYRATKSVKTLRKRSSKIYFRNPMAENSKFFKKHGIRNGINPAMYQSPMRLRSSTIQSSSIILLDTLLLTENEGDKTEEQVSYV
Experimental: as §1

[5] = molecular target: 5-HT1B receptor (Homo sapiens, UniProt P28222); test: cAMP accumulation agonist assay at 5-HT1B; type: cell-based
Chain of 5-HT1B receptor (P28222 whole entry): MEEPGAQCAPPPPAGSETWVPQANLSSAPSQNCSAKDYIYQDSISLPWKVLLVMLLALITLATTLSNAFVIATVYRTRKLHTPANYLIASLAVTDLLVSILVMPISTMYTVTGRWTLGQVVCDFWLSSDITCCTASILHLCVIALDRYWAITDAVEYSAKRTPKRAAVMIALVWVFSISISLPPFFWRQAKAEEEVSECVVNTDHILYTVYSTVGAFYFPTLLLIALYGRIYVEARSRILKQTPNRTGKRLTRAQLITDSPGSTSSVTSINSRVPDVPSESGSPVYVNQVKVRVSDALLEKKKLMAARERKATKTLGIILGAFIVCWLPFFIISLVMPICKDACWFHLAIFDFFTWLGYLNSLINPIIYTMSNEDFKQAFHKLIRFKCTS
Experimental: Disclosed compounds were tested for agonist activity at several serotonin receptor subtypes (5-HT2A, […], 5-HT2C, and 5-HT1A) using Ca^2+ flux functional assays and the 5-HT1B receptor using a cAMP accumulation assay, with the results summarized in Table 4. […] Potent agonist activity was also observed at the other serotonin receptors tested, although the selectivity profile among the receptors varied across compounds. […]. However, at the same time, the N-propyl compounds were more efficacious agonists at 5-HT2B than the corresponding N-methyl compounds. The selectivity of disclosed compounds for 5-HT2A over 5-HT2C and 5-HT1A was less predictable and varied widely across compounds, ranging from ˜1:6 to ˜20:1 (2C/2A) in the case of 5-HT2C and from ˜1:4 to >100:1 (1A/2A) in the case of 5-HT1A. […] An azetidinyl amide substituent tended to increase potency at 5-HT1A relative to 5-HT2A.
Functional Assay at 5-HT1B. Agonist activity at 5-HT1B was determined using a cAMP accumulation protocol at WuXi AppTec (Hong Kong) Limited according to their standard protocols. Briefly, stably transfected cells were plated in an OptiPlate-384 well plate, incubated at RT for 60 mins, and cAMP standard solution (800 nM, 10 μL) was added to the blank well. Then, 10 μL detection reagent was added to each well, the plate incubated for 60 mins at RT, and the plate read using EnVision.

[6] = Metabolic stability in human liver microsomes (HLM); type: in vitro ADME; conditions: both sexes, human, pH 7.4, 0.50 mg protein per mL
From the text: HLM Stability. Pooled HLM from adult male and female donors (Corning 452117) were used.

[7] = 1 nM [^3H]ketanserin, HEK293 stable cell line, read-out: 5-HT2A Receptor Ki (nM) ([^3H]ketanserin)
[8] = Ca^2+ flux, agonist, read-out: 5-HT2A EC50
[9] = Ca^2+ flux, agonist, read-out: 5-HT1A EC50
[10] = Ca^2+ flux, agonist, read-out: 5-HT2B EC50
[11] = cAMP, agonist, read-out: 5-HT1B EC50

T1 sequence (P28223 whole entry): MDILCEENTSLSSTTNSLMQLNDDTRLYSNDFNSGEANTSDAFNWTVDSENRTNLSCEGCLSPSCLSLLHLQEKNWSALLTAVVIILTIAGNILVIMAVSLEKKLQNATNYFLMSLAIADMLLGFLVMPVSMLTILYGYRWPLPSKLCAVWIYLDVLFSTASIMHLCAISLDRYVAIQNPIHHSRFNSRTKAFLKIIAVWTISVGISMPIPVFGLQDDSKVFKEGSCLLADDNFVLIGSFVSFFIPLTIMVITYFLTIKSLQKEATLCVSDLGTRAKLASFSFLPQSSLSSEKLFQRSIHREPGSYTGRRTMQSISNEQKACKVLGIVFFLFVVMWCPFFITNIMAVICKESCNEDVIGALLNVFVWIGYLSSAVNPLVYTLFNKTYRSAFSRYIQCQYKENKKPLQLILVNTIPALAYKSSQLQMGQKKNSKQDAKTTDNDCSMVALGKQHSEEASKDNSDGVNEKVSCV

Row | Structure (SMILES) | Ki [1, 7] | 5-HT2A % Act @ Max Dose ([2]; Ca^2+ flux, agonist) | EC50 [2, 8] | selectivity for 5-HT2A compared to the other serotonin receptors tested (in words) ([2]; functional agonist assays) | 5-HT1A % Act @ Max Dose ([3]; Ca^2+ flux, agonist) | EC50 [3, 9] | 5-HT2B % Act @ Max Dose ([4]; Ca^2+ flux, agonist) | EC50 [4, 10] | 5-HT1B % Act @ Max Dose ([5]; cAMP, agonist) | EC50 [5, 11] | half-life at 1 μM ([6]; pooled human liver microsomes) | microsomal CLint at 1 μM ([6]; pooled human liver microsomes) | Ki [1] | EC50 [2] | EC50 [3] | EC50 [4] | EC50 [5] | half-life at 1 μM ([6]; microsomes) | microsomal CLint at 1 μM ([6]; microsomes) | agonist activity at serotonin receptors (in words) ([2]; Ca^2+ flux / cAMP functional assays, receptors tested)
1 | CC[C@@H](C)NC(=O)[C@@H]1C=C2c3cccc4[nH]cc(c34)C[C@H]2N(CCC(F)(F)F)C1 [Compound 40, (6aR,9R)—N—((R)-sec-butyl)-7-(3,3,3-trifluoropropyl)-4,6,6a,7,8,9-hexahydroindolo[4,3-fg]quinoline-9-carboxamide] | 37.7 nM | 45.12% | 169 nM | highly selective | 22.27% | > 10000 nM | 8.46% | > 10000 nM | 62.14% | 8310 nM | 3.2 min | 435 µL/min/mg | – | – | – | – | – | – | – | –
2 | CCN(CC)C(=O)[C@@H]1C=C2c3cccc4[nH]c(Br)c(c34)C[C@H]2N(CCCF)C1 [Compound 41, (6aR,9R)-5-bromo-N,N-diethyl-7-(3-fluoropropyl)-4,6,6a,7,8,9-hexahydroindolo[4,3-fg]quinoline-9-carboxamide] | 0.58 nM | 75.44% | 116 nM | – | 39.75% | > 10000 nM | 84.51% | 509 nM | 61.49% | > 10000 nM | 10.7 min | 130 µL/min/mg | – | – | – | – | – | – | – | –
3 | C=CCN1C[C@H](C(=O)N2[C@@H](C)C[C@@H]2C)C=C2c3cccc4[nH]cc(c34)C[C@H]21 [Compound 27, ((6aR,9R)-7-allyl-4,6,6a,7,8,9-hexahydroindolo[4,3-fg]quinolin-9-yl)((2S,4S)-2,4-dimethylazetidin-1-yl)methanone] | 8.96 nM | 81.1% | 12 nM | – | 90.8% | 2.97 nM | 96.0% | 351 nM | 96.92% | 88.7 nM | 16.1 min | 86.1 µL/min/mg | – | – | – | – | – | – | – | –
4 | CN1C[C@H](C(=O)N2CCCC2)C=C2c3cccc4[nH]cc(c34)C[C@H]21 [Int22, ((6aR,9R)-7-methyl-4,6,6a,7,8,9-hexahydroindolo[4,3-fg]quinolin-9-yl)(pyrrolidin-1-yl)methanone] | 14.9 nM | 89.65% | 21.1 nM | – | 103.7% | 8.82 nM | 21.35% | 55.2 nM | 94.25% | 7.38 nM | > 145 min | < 9.6 µL/min/mg | – | – | – | – | – | – | – | –
5 | CCC(CC)NC(=O)[C@@H]1C=C2c3cccc4[nH]c(Br)c(c34)C[C@H]2N(C)C1 [Compound 44, (6aR,9R)-5-bromo-N-(pentan-3-yl)-7-methyl-4,6,6a,7,8,9-hexahydroindolo[4,3-fg]quinoline-9-carboxamide] | 0.76 nM | 29.90% | 129 nM | – | 16.56% | > 10000 nM | 15.68% | > 10000 nM | 68.53% | 1270 nM | 9 min | 153 µL/min/mg | – | – | – | – | – | – | – | –
6 | CCN(CC)C(=O)[C@@H]1C=C2c3cccc4[nH]cc(c34)C[C@H]2N(CCF)C1 [Compound 39, (6aR,9R)—N,N-diethyl-7-(2-fluoroethyl)-4,6,6a,7,8,9-hexahydroindolo[4,3-fg]quinoline-9-carboxamide] | 4.54 nM | 95.52% | 16.2 nM | – | 91.21% | 239 nM | 85.46% | 137 nM | 99.00% | 1100 nM | 31.7 min | 43.8 µL/min/mg | – | – | – | – | – | – | – | –
7 | CCN(CC)C(=O)[C@@H]1C=C2c3cccc4[nH]c(Br)c(c34)C[C@H]2N(C)C1 [Compound 35, (6aR,9R)-5-bromo-N,N-diethyl-7-methyl-4,6,6a,7,8,9-hexahydroindolo[4,3-fg]quinoline-9-carboxamide] | – | 67.74% | – | – | −1.58% | – | −0.13% | – | 76.8% | – | – | – | 0.73 nM | 66.4 nM | > 3160 nM | > 10000 nM | 214 nM | 24.2 min | 57.4 µL/min/mg | –
8 | CCN(CC)C(=O)[C@@H]1C=C2c3cccc4[nH]c(Br)c(c34)C[C@H]2N(CCC(F)(F)F)C1 [Compound 42, (6aR,9R)-5-bromo-N,N-diethyl-7-(3,3,3-trifluoropropyl)-4,6,6a,7,8,9-hexahydroindolo[4,3-fg]quinoline-9-carboxamide] | 1.84 nM | 8.29% | > 1000 nM | – | 9.13% | > 10000 nM | 2.58% | > 10000 nM | 33.13% | > 10000 nM | 11.1 min | 125 µL/min/mg | – | – | – | – | – | – | – | no agonist activity
9 | CCCN1C[C@H](C(=O)N[C@H](C)CC)C=C2c3cccc4[nH]c(Br)c(c34)C[C@H]21 [Compound 46, (6aR,9R)-5-bromo-N—((R)-sec-butyl)-7-propyl-4,6,6a,7,8,9-hexahydroindolo[4,3-fg]quinoline-9-carboxamide] | 1.03 nM | 69.48% | 110 nM | – | 69.48% | 707 nM | 79.00% | 788 nM | 78.76% | 1180 nM | 3.2 min | 427 µL/min/mg | – | – | – | – | – | – | – | –
10 | CC[C@@H](C)NC(=O)[C@@H]1C=C2c3cccc4[nH]c(Br)c(c34)C[C@H]2N(C)C1 [Compound 43, (6aR,9R)-5-bromo-N—((R)-sec-butyl)-7-methyl-4,6,6a,7,8,9-hexahydroindolo[4,3-fg]quinoline-9-carboxamide] | 1.13 nM | 39.32% | 118 nM | – | 6.30% | > 10000 nM | 1.00% | > 10000 nM | 83.76% | 311 nM | 24.8 min | 56 µL/min/mg | – | – | – | – | – | – | – | –
11 | CCCN1C[C@H](C(=O)N2[C@@H](C)C[C@@H]2C)C=C2c3cccc4[nH]c(Br)c(c34)C[C@H]21 [Compound 47, ((6aR,9R)-5-bromo-7-propyl-4,6,6a,7,8,9-hexahydroindolo[4,3-fg]quinolin-9-yl)((2S,4S)-2,4-dimethylazetidin-1-yl)methanone] | 1.38 nM | 57.01% | 117 nM | – | 62.15% | 93.6 nM | 87.01% | 1440 nM | 76.22% | 4960 nM | 5.6 min | 249 µL/min/mg | – | – | – | – | – | – | – | –
